This note sets out measurements from patent US9375409B2, “Use of polyunsaturated ketones for the treatment of psoriasis” (Avexxin AS, priority 2002, dated 2016).

For data set [1], the target named is recombinant human IV PLA2 (Homo sapiens, UniProt P47712). As to the kind of experiment: biochemical. The conditions noted are these: for inhibition at 5 µM: read-out: inhibition of IV PLA2 enzyme activity.
The subject of data set [2] is PGE2 production in HaCaT cells. As to the kind of experiment: A23187-induced PGE2 release in LPS-stimulated HaCaT cells (PGE2 EIA). The conditions noted are these: Homo sapiens, 0.5 h, read-out: IC50 for inhibiting A23187-induced PGE2 release. Type of data set: cell-based.
The test system of data set [3] is HaCaT cells. As to the kind of experiment: MTT assay (toxicity). It counts as cell-based, human. The procedure: Confluent cells were pretreated with inhibitors in serum free medium for 1 hour, and then treated with stimulating agent for 1 hour. Conversion of substrate [3-(4, 5-dimethylthiazol-2-yl)-2, 5-diphenyl tetrazolium bromide] was measured as optical density at 580 nm after 4 hours according to Mosmann [Mosmann T, J. Immunol. Methods 65, 55-63, 1983]. For each concentration of inhibitor nine parallels were measured.
Background: Formazan colour is commonly taken as a measure of viable cells.

[4] abbreviates: read-out: IC50 for IV PLA2 inhibition.

Like-named read-outs stand apart in the source and are kept apart here.

For orientation: IC50 means the concentration needed to halve the response being measured. What is called inhibition is the percentage by which the read-out fell short of the control.

recombinant human IV PLA2, sequence (P47712 whole entry): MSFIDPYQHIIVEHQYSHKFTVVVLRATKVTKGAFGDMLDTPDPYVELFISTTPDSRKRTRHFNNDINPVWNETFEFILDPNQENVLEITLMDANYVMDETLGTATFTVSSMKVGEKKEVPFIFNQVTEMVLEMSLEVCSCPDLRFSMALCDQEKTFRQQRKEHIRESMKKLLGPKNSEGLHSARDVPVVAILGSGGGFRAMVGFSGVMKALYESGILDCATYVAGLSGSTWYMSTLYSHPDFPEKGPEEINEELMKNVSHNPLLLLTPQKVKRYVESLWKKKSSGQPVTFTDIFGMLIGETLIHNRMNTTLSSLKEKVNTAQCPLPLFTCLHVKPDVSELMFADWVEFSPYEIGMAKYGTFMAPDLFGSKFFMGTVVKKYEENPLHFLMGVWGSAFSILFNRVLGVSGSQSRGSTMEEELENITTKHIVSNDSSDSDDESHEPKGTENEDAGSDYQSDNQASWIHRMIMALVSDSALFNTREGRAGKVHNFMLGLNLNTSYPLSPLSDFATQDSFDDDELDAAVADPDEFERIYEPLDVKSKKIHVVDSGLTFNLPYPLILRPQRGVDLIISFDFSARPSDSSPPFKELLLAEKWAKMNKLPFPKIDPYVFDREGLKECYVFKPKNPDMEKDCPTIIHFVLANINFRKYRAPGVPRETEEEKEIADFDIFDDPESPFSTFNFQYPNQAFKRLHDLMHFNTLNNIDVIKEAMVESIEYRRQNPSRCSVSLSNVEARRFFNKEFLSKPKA

Turning to `CC/C=C\C/C=C\C/C=C\C/C=C\C/C=C\CCCC(=O)C(F)(F)F` [EPACOCF3], the IC50 in data set [1] (setting [4]) worked out at 2.9 ± 1.9 µM; in data set [2] (HaCaT) it was 180 nM. In addition, the inhibition at 5 µM in data set [1] is 75 to 80%.

On to `CC/C=C\C/C=C\C/C=C\C/C=C\C/C=C\CCSCC(=O)C(F)(F)F` [EPASCOCF3], for which, in data set [1] (setting [4]), the concentration for half-maximal inhibition (IC50) amounted to 3.5 µM. In addition, the inhibition at 5 µM in data set [1] was in the range of 75 to 80%.

As to `CC/C=C\C/C=C\C/C=C\C/C=C\C/C=C\C/C=C\CCC(=O)C(F)(F)F` [DHACOCF3], the IC50 in data set [1] (setting [4]) was 21.3 ± 1.5 µM. Moreover, the inhibition at 5 µM in data set [1] was determined as 30%.

For `CS(=O)(=O)Nc1ccc([N+](=O)[O-])cc1OC1CCCCC1` [NS-398, reference compound], the IC50 in data set [2] (LPS-stimulated HaCaT cells, inhibitor 0.2-25 μM for 30 min, FIG. 4) came out at 240 nM.

For `CNc1ccc2oc(C[C@H]3O[C@@]4(CC[C@H]3C)O[C@H]([C@H](C)C(=O)c3ccc[nH]3)[C@H](C)C[C@H]4C)nc2c1C(=O)O` [A23187], the “toxic concentration by MTT assay” value in data set [3] is “higher than 10 μM”.

For `CCCCC/C=C\C/C=C\C/C=C\C/C=C\CCCC(=O)C(F)(F)F` [AACOCF3, reference compound], in data set [1], the IC50 was determined as 5.8 ± 1.9 µM and the inhibition at 5 µM lay within 75 to 80%.
